From ChEMBL document CHEMBL4325840, “Design, synthesis and evaluation of novel hybrids between 4-anilinoquinazolines and substituted triazoles as potent cytotoxic agents” (Bioorg Med Chem Lett, 2018)
Where a name gives a salt, the structure may show the parent alone.

Tests used:
HepG2 [1] = test: Potency index, ratio of erlotinib hydrochloride IC50 to compound IC50 for human HepG2 cells; format: functional
HepG2 [2] = test: Potency index, ratio of erlotinib IC50 to compound IC50 for human HepG2 cells; format: functional
KB [3] = test: Potency index, ratio of erlotinib hydrochloride IC50 to compound IC50 for human KB cells; format: functional
KB [4] = test: Cytotoxicity against human KB cells after 3 days by MTT assay; format: functional, cell-based
HepG2 [5] = test: Cytotoxicity against human HepG2 cells after 3 days by MTT assay; format: functional, cell-based
KB [6] = test: Potency index, ratio of erlotinib IC50 to compound IC50 for human KB cells; format: functional
SK-LU-1 [7] = test: Cytotoxicity against human SK-LU-1 cells after 3 days by MTT assay; format: functional, cell-based
SK-LU-1 [8] = test: Potency index, ratio of erlotinib hydrochloride IC50 to compound IC50 for human SK-LU-1 cells; format: functional
SK-LU-1 [9] = test: Potency index, ratio of erlotinib IC50 to compound IC50 for human SK-LU-1 cells; format: functional

O=[N+]([O-])c1ccccc1-n1cc(-c2cccc(Nc3ncnc4cc5c(cc34)OCCCO5)c2)nn1
Ratio IC50 (HepG2 [1]): <=100 | Ratio IC50 (HepG2 [2]): <=100 | Ratio IC50 (KB [3]): <=100 | IC50 (KB [4]; Homo sapiens, KB, 72 h): 20.4 µM | IC50 (HepG2 [5]; Homo sapiens, HepG2, 72 h): 43.4 µM | Ratio IC50 (KB [6]): <=100 | IC50 (SK-LU-1 [7]; Homo sapiens, SK-LU-1, 72 h): 14.8 µM | Ratio IC50 (SK-LU-1 [8]): <=100 | Ratio IC50 (SK-LU-1 [9]): <=100

O=[N+]([O-])c1cccc(-n2cc(-c3cccc(Nc4ncnc5cc6c(cc45)OCCCO6)c3)nn2)c1
IC50 (KB [4]; Homo sapiens, KB, 72 h): 53.2 µM | IC50 (HepG2 [5]; Homo sapiens, HepG2, 72 h): 76.8 µM | IC50 (SK-LU-1 [7]; Homo sapiens, SK-LU-1, 72 h): 230 µM

O=[N+]([O-])c1ccccc1-n1cc(-c2cccc(Nc3ncnc4cc5c(cc34)OCO5)c2)nn1
IC50 (KB [4]; Homo sapiens, KB, 72 h): 193 µM | IC50 (HepG2 [5]; Homo sapiens, HepG2, 72 h): 207 µM | IC50 (SK-LU-1 [7]; Homo sapiens, SK-LU-1, 72 h): 217 µM

O=[N+]([O-])c1ccccc1-n1cc(-c2cccc(Nc3ncnc4ccccc34)c2)nn1
Ratio IC50 (HepG2 [1]): <=100 | Ratio IC50 (HepG2 [2]): <=100 | Ratio IC50 (KB [3]): <=100 | IC50 (KB [4]; Homo sapiens, KB, 72 h): 5.5 µM | IC50 (HepG2 [5]; Homo sapiens, HepG2, 72 h): 4.64 µM | Ratio IC50 (KB [6]): <=100 | IC50 (SK-LU-1 [7]; Homo sapiens, SK-LU-1, 72 h): 4.76 µM | Ratio IC50 (SK-LU-1 [8]): <=100 | Ratio IC50 (SK-LU-1 [9]): <=100

C#Cc1cccc(Nc2ncnc3cc4c(cc23)OCCO4)c1
Ratio IC50 (HepG2 [1]): <=100 | Ratio IC50 (HepG2 [2]): <=100 | Ratio IC50 (KB [3]): <=100 | IC50 (KB [4]; Homo sapiens, KB, 72 h): 2.6 µM | IC50 (HepG2 [5]; Homo sapiens, HepG2, 72 h): 2.84 µM | Ratio IC50 (KB [6]): <=100 | IC50 (SK-LU-1 [7]; Homo sapiens, SK-LU-1, 72 h): 3.36 µM | Ratio IC50 (SK-LU-1 [8]): <=100 | Ratio IC50 (SK-LU-1 [9]): <=100

C#Cc1cccc(Nc2ncnc3cc4c(cc23)OCCCO4)c1
IC50 (KB [4]; Homo sapiens, KB, 72 h): 54.8 µM | IC50 (HepG2 [5]; Homo sapiens, HepG2, 72 h): 69.9 µM | IC50 (SK-LU-1 [7]; Homo sapiens, SK-LU-1, 72 h): 80.7 µM

N#Cc1cc(-n2cc(-c3cccc(Nc4ncnc5ccccc45)c3)nn2)ccc1C(F)(F)F
Ratio IC50 (HepG2 [1]): <=100 | Ratio IC50 (HepG2 [2]): <=100 | Ratio IC50 (KB [3]): <=100 | IC50 (KB [4]; Homo sapiens, KB, 72 h): 1.46 µM | IC50 (HepG2 [5]; Homo sapiens, HepG2, 72 h): 1.86 µM | Ratio IC50 (KB [6]): <=100 | IC50 (SK-LU-1 [7]; Homo sapiens, SK-LU-1, 72 h): 4.5 µM | Ratio IC50 (SK-LU-1 [8]): <=100 | Ratio IC50 (SK-LU-1 [9]): <=100

N#Cc1cc(-n2cc(-c3cccc(Nc4ncnc5cc6c(cc45)OCO6)c3)nn2)ccc1C(F)(F)F
Ratio IC50 (HepG2 [1]): <=100 | Ratio IC50 (HepG2 [2]): <=100 | Ratio IC50 (KB [3]): <=100 | IC50 (KB [4]; Homo sapiens, KB, 72 h): 4.59 µM | IC50 (HepG2 [5]; Homo sapiens, HepG2, 72 h): 6.1 µM | Ratio IC50 (KB [6]): <=100 | IC50 (SK-LU-1 [7]; Homo sapiens, SK-LU-1, 72 h): 27.5 µM | Ratio IC50 (SK-LU-1 [8]): <=100 | Ratio IC50 (SK-LU-1 [9]): <=100

O=[N+]([O-])c1cccc(-n2cc(-c3cccc(Nc4ncnc5ccccc45)c3)nn2)c1
IC50 (KB [4]; Homo sapiens, KB, 72 h): 104 µM | IC50 (HepG2 [5]; Homo sapiens, HepG2, 72 h): 287 µM | IC50 (SK-LU-1 [7]; Homo sapiens, SK-LU-1, 72 h): 260 µM

C#Cc1cccc(Nc2ncnc3cc4c(cc23)OCO4)c1
IC50 (KB [4]; Homo sapiens, KB, 72 h): 75.6 µM | IC50 (HepG2 [5]; Homo sapiens, HepG2, 72 h): 26.2 µM | IC50 (SK-LU-1 [7]; Homo sapiens, SK-LU-1, 72 h): 64.9 µM

N#Cc1cc(-n2cc(-c3cccc(Nc4ncnc5cc6c(cc45)OCCCO6)c3)nn2)ccc1C(F)(F)F
Ratio IC50 (HepG2 [1]): <=100 | Ratio IC50 (HepG2 [2]): <=100 | Ratio IC50 (KB [3]): <=100 | IC50 (KB [4]; Homo sapiens, KB, 72 h): 1.49 µM | IC50 (HepG2 [5]; Homo sapiens, HepG2, 72 h): 1.61 µM | Ratio IC50 (KB [6]): <=100 | IC50 (SK-LU-1 [7]; Homo sapiens, SK-LU-1, 72 h): 1.81 µM | Ratio IC50 (SK-LU-1 [8]): <=100 | Ratio IC50 (SK-LU-1 [9]): <=100

O=[N+]([O-])c1ccc(-n2cc(-c3cccc(Nc4ncnc5ccccc45)c3)nn2)cc1
Ratio IC50 (HepG2 [1]): <=100 | Ratio IC50 (HepG2 [2]): <=100 | Ratio IC50 (KB [3]): <=100 | IC50 (KB [4]; Homo sapiens, KB, 72 h): 5.47 µM | IC50 (HepG2 [5]; Homo sapiens, HepG2, 72 h): 8.11 µM | Ratio IC50 (KB [6]): <=100 | IC50 (SK-LU-1 [7]; Homo sapiens, SK-LU-1, 72 h): 9.16 µM | Ratio IC50 (SK-LU-1 [8]): <=100 | Ratio IC50 (SK-LU-1 [9]): <=100

O=[N+]([O-])c1ccc(-n2cc(-c3cccc(Nc4ncnc5cc6c(cc45)OCO6)c3)nn2)cc1
IC50 (KB [4]; Homo sapiens, KB, 72 h): 30.1 µM | IC50 (HepG2 [5]; Homo sapiens, HepG2, 72 h): 11.3 µM | IC50 (SK-LU-1 [7]; Homo sapiens, SK-LU-1, 72 h): 44.5 µM

O=[N+]([O-])c1ccc(-n2cc(-c3cccc(Nc4ncnc5cc6c(cc45)OCCO6)c3)nn2)cc1
IC50 (KB [4]; Homo sapiens, KB, 72 h): 79.1 µM | IC50 (HepG2 [5]; Homo sapiens, HepG2, 72 h): 230 µM | IC50 (SK-LU-1 [7]; Homo sapiens, SK-LU-1, 72 h): 54.8 µM

C#Cc1cccc(Nc2ncnc3ccccc23)c1
Ratio IC50 (HepG2 [1]): <=100 | Ratio IC50 (HepG2 [2]): <=100 | Ratio IC50 (KB [3]): <=100 | IC50 (KB [4]; Homo sapiens, KB, 72 h): 5.46 µM | IC50 (HepG2 [5]; Homo sapiens, HepG2, 72 h): 4.16 µM | Ratio IC50 (KB [6]): <=100 | IC50 (SK-LU-1 [7]; Homo sapiens, SK-LU-1, 72 h): 4.16 µM | Ratio IC50 (SK-LU-1 [8]): <=100 | Ratio IC50 (SK-LU-1 [9]): <=100

O=[N+]([O-])c1cccc(-n2cc(-c3cccc(Nc4ncnc5cc6c(cc45)OCCO6)c3)nn2)c1
Ratio IC50 (HepG2 [1]): <=100 | Ratio IC50 (HepG2 [2]): <=100 | Ratio IC50 (KB [3]): <=100 | IC50 (KB [4]; Homo sapiens, KB, 72 h): 3.51 µM | IC50 (HepG2 [5]; Homo sapiens, HepG2, 72 h): 0.88 µM | Ratio IC50 (KB [6]): <=100 | IC50 (SK-LU-1 [7]; Homo sapiens, SK-LU-1, 72 h): 5.67 µM | Ratio IC50 (SK-LU-1 [8]): <=100 | Ratio IC50 (SK-LU-1 [9]): <=100

O=[N+]([O-])c1ccccc1-n1cc(-c2cccc(Nc3ncnc4cc5c(cc34)OCCO5)c2)nn1
Ratio IC50 (HepG2 [1]): <=100 | Ratio IC50 (HepG2 [2]): <=100 | Ratio IC50 (KB [3]): <=100 | IC50 (KB [4]; Homo sapiens, KB, 72 h): 0.04 µM | IC50 (HepG2 [5]; Homo sapiens, HepG2, 72 h): 0.14 µM | Ratio IC50 (KB [6]): <=100 | IC50 (SK-LU-1 [7]; Homo sapiens, SK-LU-1, 72 h): 1.03 µM | Ratio IC50 (SK-LU-1 [8]): <=100 | Ratio IC50 (SK-LU-1 [9]): <=100

N#Cc1cc(-n2cc(-c3cccc(Nc4ncnc5cc6c(cc45)OCCO6)c3)nn2)ccc1C(F)(F)F
Ratio IC50 (HepG2 [1]): <=100 | Ratio IC50 (HepG2 [2]): <=100 | Ratio IC50 (KB [3]): <=100 | IC50 (KB [4]; Homo sapiens, KB, 72 h): 0.27 µM | IC50 (HepG2 [5]; Homo sapiens, HepG2, 72 h): 6.09 µM | Ratio IC50 (KB [6]): <=100 | IC50 (SK-LU-1 [7]; Homo sapiens, SK-LU-1, 72 h): 4.44 µM | Ratio IC50 (SK-LU-1 [8]): <=100 | Ratio IC50 (SK-LU-1 [9]): <=100

O=[N+]([O-])c1cccc(-n2cc(-c3cccc(Nc4ncnc5cc6c(cc45)OCO6)c3)nn2)c1
Ratio IC50 (HepG2 [1]): <=100 | Ratio IC50 (HepG2 [2]): <=100 | Ratio IC50 (KB [3]): <=100 | IC50 (KB [4]; Homo sapiens, KB, 72 h): 6.35 µM | IC50 (HepG2 [5]; Homo sapiens, HepG2, 72 h): 6.88 µM | Ratio IC50 (KB [6]): <=100 | IC50 (SK-LU-1 [7]; Homo sapiens, SK-LU-1, 72 h): 6.66 µM | Ratio IC50 (SK-LU-1 [8]): <=100 | Ratio IC50 (SK-LU-1 [9]): <=100

Cc1c2ccncc2c(C)c2c1[nH]c1ccccc12 [ELLIPTECINE]
IC50 (KB [4]; Homo sapiens, KB, 72 h): 1.95 µM | IC50 (HepG2 [5]; Homo sapiens, HepG2, 72 h): 2.72 µM | IC50 (SK-LU-1 [7]; Homo sapiens, SK-LU-1, 72 h): 1.38 µM

C#Cc1cccc(Nc2ncnc3cc(OCCOC)c(OCCOC)cc23)c1 [ERLOTINIB HYDROCHLORIDE]
IC50 (KB [4]; kb): 49.6 µM | IC50 (HepG2 [5]; hepg2): 14.2 µM | IC50 (SK-LU-1 [7]; sk-lu-1): 31.2 µM

C#Cc1cccc(Nc2ncnc3cc(OCCOC)c(OCCOC)cc23)c1 [ERLOTINIB]
IC50 (KB [4]; kb): 13 µM | IC50 (SK-LU-1 [7]; sk-lu-1): 99.8 µM
